Earlier results as cited in patent US20150119345A1, “BILE ACID RECYCLING INHIBITORS FOR TREATMENT OF GASTROINTESTINAL INFECTIONS” (priority 2013, published 2015).

How the values were obtained:
mice = conditions: 0.1 mg/kg rat or human GLP-2 to mice for 7-10 days

GLP-2: 33 amino acid peptide, co-secreted along with GLP-1 from intestinal endocrine cells in the small and large intestine
small bowel weight and villus height (mice): increase in small bowel weight and villus height | t½ in vivo: short
